From BindingDB's records for patent US20250108123 (Jacobio Pharmaceuticals, 2025)

Target: Stimulator of interferon genes protein (Homo sapiens, UniProt Q86WV6)
Assay: Human STING WT Binding Assay
Protocol: Cisbio Bioassays' human STING WT binding assay (#64BDSTGPEG & 64BDSTGPEH, Cisbio) is for quantitative measurement of human STING WT ligand using HTRF technology.1. Adding CompoundsNegative control: Dispense 5 μL of diluent into each negative control well. Standard: Dispense 5 μL of each Human STING WT Standard 2′3′-cGAMP (Std 0-Std 7) into each standard well. Compound: Dispense 5 μL of compound into each compound well.2. Adding ProteinsNegative control: Add 5 μL of detection buffer to all wells. Other wells: Add 5 μL of human STING WT protein 6His-tagged protein to all wells.3. Adding AntibodiesAdd 10 μL of premixed STING WT ligand d2 reagent and 6His Tb antibody working solution to all wells.4. RT IncubationSeal the plate and incubate 3 hours at RT or at Over Night if necessary.5. Reading PlateRemove the plate sealer and read on an HTRF compatible reader (PerkinElmer, USA). Results were analyzed with a two-wavelength signal ratio: intensity (665 nm)/intensity (620 nm).6.

Chain of Stimulator of interferon genes protein (Q86WV6 whole entry): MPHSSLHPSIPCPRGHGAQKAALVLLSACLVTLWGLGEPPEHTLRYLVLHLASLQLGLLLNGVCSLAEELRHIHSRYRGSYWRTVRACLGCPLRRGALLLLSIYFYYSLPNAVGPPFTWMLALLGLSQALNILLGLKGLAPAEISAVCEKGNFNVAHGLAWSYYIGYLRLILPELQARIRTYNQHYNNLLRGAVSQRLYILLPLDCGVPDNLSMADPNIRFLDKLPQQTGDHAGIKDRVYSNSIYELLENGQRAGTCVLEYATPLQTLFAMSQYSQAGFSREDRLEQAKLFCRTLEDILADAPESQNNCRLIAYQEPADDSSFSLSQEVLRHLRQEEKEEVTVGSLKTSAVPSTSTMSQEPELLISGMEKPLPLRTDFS

COC1C=C2CN(C(=O)CCC(=O)O)CC2=CC1OCCCOC1C=C2CN(C(=O)CCC(=O)O)CC2=CC1OC (stereo unspecified) [US20250108123, Example I-1]
IC50: < 0.1 nM
